# How the values were obtained:
# bNOS = bNOS (Homo sapiens, UniProt P29475); assay: bNOS inhibition (method of Bredt and Snyder); assay type: biochemical; conditions: Proc. Natl. Acad. Sci. USA (1989) 86, 9030-9033
# Description: The NOS-inhibitory action of the compounds of Formula (I) and their physiologically compatible salts can be determined according to the methods by Bredt and Snyder in Proc. Natl. Acad. Sci. USA (1989) 86, 9030-9033.
IC50 (bNOS),melting point,SMILES
590 nM,–,"NC1=Nc2c(F)cccc2C2CCCC12F (centres unmarked) [Example 2, 4-amino-3a,6-difluoro-2,3,3a,9b-tetrahydro-1H-cyclopenta[c]quinoline]"
–,220 °C,"NC1=Nc2ccc(Br)cc2C2CCCC12F (centres unmarked) [Example 3, 4-Amino-8-bromo-3a-fluoro-2,3,3a,9b-tetrahydro-1H-cyclopenta[c]quinoline]"

# From patent publication US6579883B1, “Fluorinated 3,4-dihydroquinoline derivatives used as NOS inhibitors” (Schering Aktiengesellschaft, priority 1998, dated 2003)
